Measurements published in patent US20090029981A1, “SUBSTITUTED 4-PHENYLPIPERIDINES” (priority 2006, published 2009).

The compounds below were run against T1, renin (Homo sapiens, UniProt P00797) (assay: Formation of angiotensin I in human plasma (in vitro test of Nussberger et al.), radio-immunoassay). Conditions: one range stated for the listed examples together, about, read-out: IC50, concentration of the inhibitor which reduces the formation of angiotensin I by 50%.
T1 construct: This test measures the formation of angiotensin I in human plasma; from tissue; host or cells: human plasma
T1 sequence (P00797 67-406): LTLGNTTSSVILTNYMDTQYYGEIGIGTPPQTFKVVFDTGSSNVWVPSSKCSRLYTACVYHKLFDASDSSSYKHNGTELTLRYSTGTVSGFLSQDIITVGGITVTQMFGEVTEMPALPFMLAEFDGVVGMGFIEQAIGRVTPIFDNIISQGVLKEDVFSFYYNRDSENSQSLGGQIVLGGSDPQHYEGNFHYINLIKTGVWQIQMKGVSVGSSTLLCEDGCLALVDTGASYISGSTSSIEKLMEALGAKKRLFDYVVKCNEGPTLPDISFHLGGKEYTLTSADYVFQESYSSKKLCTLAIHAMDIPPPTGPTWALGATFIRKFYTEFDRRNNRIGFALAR
Format: biochemical
Source text: The compounds of the formula (I) or (IA), and their pharmaceutically acceptable salts have an inhibitory effect on the natural enzyme renin. The latter passes from the kidneys into the blood and there brings about the cleavage of angiotensinogen to form the decapeptide angiotensin I which is then cleaved in the lung, the kidneys and other organs to the octa-peptide angiotensin II. Angiotensin II raises the blood pressure both directly by arterial constriction, and indirectly by releasing the hormone aldosterone, which retains sodium ions, from the adrenals, which is associated with an increase in the extracellular fluid volume. This increase is attributable to the effect of angiotensin II itself or of the heptapeptide angiotensin III formed therefrom as cleavage product. Inhibitors of the enzymatic activity of renin bring about a reduction in the formation of angiotensin I and, as a consequence thereof, the formation of a smaller amount of angiotensin II. The reduced concentration of this active peptide hormone is the direct cause of the blood pressure-lowering effect of renin inhibitors.
The effect of renin inhibitors is detected inter alia experimentally by means of in vitro tests where the reduction in the formation of angiotensin I is measured in various systems (human plasma, purified human renin together with synthetic or natural renin substrate). The following in vitro test of Nussberger et al. (1987) J. Cardiovascular Pharmacol., Vol. 9, pp. 39-44, is used inter alia. This test measures the formation of angiotensin I in human plasma. The amount of angiotensin I formed is determined in a subsequent radio-immunoassay. The effect of inhibitors on the formation of angiotensin I is tested in this system by adding various concentrations of these substances. The IC50 is defined as the concentration of the particular inhibitor which reduces the formation of angiotensin I by 50%. The compounds of the present invention show inhibitory effects in the in vitro systems at minimal concentrations of about 10^−6 to about 10^−10 mol/l.

IC50, 3.8 to 814 nM:
COCCCN1CCOc2ccc(CO[C@H]3CNC[C@@H](OC[C@H](O)COC)[C@@H]3c3ccc(OC)cc3)cc21 [Example 2, (R)-1-Methoxy-3-{(3S,4R,5R)-4-(4-methoxyphenyl)-5-[4-(3-methoxypropyl)-3,4-dihydro-2H-benzo[1,4]oxazin-6-ylmethoxy]piperidin-3-yloxy}propan-2-ol]
COCCCN1CCOc2ccc(CO[C@H]3CNC[C@@H](OCC#N)[C@@H]3c3ccc(OC)cc3)cc21 [Example 1, {(3S,4R,5R)-4-(4-Methoxyphenyl)-5-[4-(3-methoxypropyl)-3,4-dihydro-2H-benzo[1,4]oxazin-6-ylmethoxy]piperidin-3-yloxyl}acetonitrile]
COCCCSc1ccc([C@@H]2[C@@H](OCc3ccc4c(c3)N(CCCOC)CCO4)CNC[C@H]2OC[C@H](O)COC)cc1 [Example 71, (R)-1-Methoxy-3-{(3S,4R,5R)-5-[4-(3-methoxypropyl)-3,4-dihydro-2H-benzo[1,4]oxazin-6-ylmethoxy]-4-[4-(3-methoxypropylsulfanyl)phenyl]piperidin-3-yloxy}propan-2-ol]
COCCCN1CCOc2ccc(CO[C@H]3CNC[C@@H](CNC(C)C)[C@@H]3c3ccc(OC)cc3)cc21 [Example 87, Isopropyl-{(3S,4R,5R)-4-(4-methoxyphenyl)-5-[4-(3-methoxypropyl)-3,4-dihydro-2H-benzo[1,4]oxazin-6-ylmethoxy]piperidin-3-ylmethyl}amine]
COCCCN1CCOc2ccc(CO[C@H]3CNC[C@@H](OC[C@H](O)COC)[C@@H]3c3ccc(SCCOC)cc3)cc21 [Example 70, (R)-1-Methoxy-3-{(3S,4R,5R)-4-[4-(2-methoxyethylsulfanyl)phenyl]-5-[4-(3-methoxy-propyl)-3,4-dihydro-2H-benzo[1,4]oxazin-6-ylmethoxy]piperidin-3-yloxy}propan-2-ol]
COCCCN1CCOc2ccc(CO[C@H]3CNC[C@@H](OC[C@@H](O)COC)[C@@H]3c3ccc(C#N)cc3)cc21 [Example 74, 4-{(3S,4R,5R)-3((S)-2-Hydroxy-3-methoxypropoxy)-5-[4-(3-methoxypropyl)-3,4-dihydro-2H-benzo[1,4]oxazin-6-ylmethoxy]piperidin-4-yl}-benzonitrile]
COCCCN1CCOc2ccc(CO[C@H]3CNC[C@@H](CNC(C)=O)[C@@H]3c3ccc(OC)cc3)cc21 [Example 91, N-{(3S,4R,5R)-4-(4-Methoxyphenyl)-5-[4-(3-methoxypropyl)-3,4-dihydro-2H-benzo[1,4]oxazin-6-ylmethoxy]piperidin-3-ylmethyl}acetamide]
COCCCN1CCOc2ccc(CO[C@H]3CNC[C@@H](OCC(C)(C)OC)[C@@H]3c3ccc(OC)cc3)cc21 [Example 8, 6-[(3R,4R,5S)-5-(2-Methoxy-2-methylpropoxy)-4-(4-methoxyphenyl)piperidin-3-yloxymethyl]-4-(3-methoxypropyl)-3,4-dihydro-2H-benzo[1,4]oxazine]
COCCCN1CCOc2ccc(CO[C@H]3CNC[C@@H](OC[C@H](O)COC)[C@@H]3c3ccc(C#N)cc3)cc21 [Example 73, 4-{(3S,4R,5R)-3((R)-2-Hydroxy-3-methoxypropoxy)-5-[4-(3-methoxypropyl)-3,4-dihydro-2H-benzo[1,4]oxazin-6-ylmethoxy]piperidin-4-yl}benzonitrile]
COCCCN1CCOc2ccc(CO[C@H]3CNC[C@@H](OCCN4[C@H](C)COC[C@@H]4C)[C@@H]3c3ccc(OC)cc3)cc21 [Example 68, 6-[(3R,4R,5S)-5-[2-((3R,5S)-3,5-Dimethylmorpholin-4-yl)ethoxy]-4-(4-methoxy-phenyl)piperidin-3-yloxymethyl]-4-(3-methoxypropyl)-3,4-dihydro-2H-benzo[1,4]oxazine]
C#CCO[C@@H]1CNC[C@H](OCc2ccc3c(c2)N(CCCOC)CCO3)C1c1ccc(OC)cc1 (stereo in doubt) [Example 5, 6-[(3R,4R,5S)-4-(4-Methoxyphenyl)-5-prop-2-ynyloxypiperidin-3-yloxymethyl]-4-(3-methoxy-propyl)-3,4-dihydro-2H-benzo[1,4]oxazine]
COCCCN1CCOc2ccc(CO[C@H]3CNC[C@@H](OCC(=O)N4[C@H](C)COC[C@@H]4C)[C@@H]3c3ccc(OC)cc3)cc21 [Example 61, 1-((3S,5R)-3,5-Dimethylmorpholin-4-yl)-2-{(3S,4R,5R)-4-(4-methoxyphenyl)-5-[4-(3-methoxypropyl)-3,4-dihydro-2H-benzo[1,4]oxazin-6-ylmethoxy]piperidin-3-yloxy}-ethanone]
